Experiments:
Assay type in all cases: biochemical
[1] = test system: α-isomaltosylglucosaccharide-forming enzyme from Bacillus globisporus C9; assay: Action of α-isomaltosylglucosaccharide-forming enzyme on saccharides as substrates (TLC), enzyme of Strain C9; parameters: key: −: it showed no change; +: it showed a slight reduction of the color of substrate spot and the formation of other reaction product; ++: it showed a high reduction of the color of substrate spot and the formation of other reaction product; +++: it showed a substantial disappearance of the color of substrate spot and the formation of other reaction product; details: two units/g substrate, substrate 2% (w/v), 30° C., pH 6.0, 24 hours
Method: (§1) The action of α-isomaltosylglucosaccharide-forming enzyme on saccharides as substrates was tested. First, a solution of maltose, maltotriose, maltotetraose, maltopentaose, maltohexaose, maltoheptaose, isomaltose, isomaltotriose, panose, isopanose, α,α-trehalose (may be abbreviated as “trehalose” hereinafter), kojibiose, nigerose, neotrehalose, cellobiose, gentibiose, maltitol, maltotriitol, lactose, sucrose, erlose, selaginose, maltosyl glucoside, or isomaltosyl glucoside was prepared. To each of the above solutions was added two units/g substrate of the purified specimen of α-isomaltosylglucosaccharide-forming enzyme from Bacillus globisporus C9 in Experiment 2-1 or Bacillus globisporus C11 in Experiment 4-1, and each resulting solution was adjusted to give a substrate concentration of 2% (w/v) and incubated at 30° C. and pH 6.0 for 24 hours. The solutions before and after the enzymatic reactions were respectively subjected to thin-layer chromatography (abbreviated as “TLC” hereinafter). TLC was carried out in such a manner of separating saccharides by developing the solutions twice each using, as a developer, a mixture solution of n-butanol, pyridine, and water (=6:4:1), and, as a thin-layer plate, “[…] 60”, an aluminum plate (20×20 cm) for TLC commercialized by Merck & Co., Inc., Rahway, USA.; detecting the total saccharides in each mixture solution by spraying a mixture of sulfuric acid and methanol onto the aluminum plates to develop color of the total saccharides and detecting non-reducing saccharides in each mixture solution by the diphenylamine-aniline method.

[2] = test system: α-isomaltosylglucosaccharide-forming enzyme from Bacillus globisporus C11; assay: Action of α-isomaltosylglucosaccharide-forming enzyme on saccharides as substrates (TLC), enzyme of Strain C11; parameters: key: −: it showed no change; +: it showed a slight reduction of the color of substrate spot and the formation of other reaction product; ++: it showed a high reduction of the color of substrate spot and the formation of other reaction product; +++: it showed a substantial disappearance of the color of substrate spot and the formation of other reaction product; details: two units/g substrate, substrate 2% (w/v), 30° C., pH 6.0, 24 hours
Method: as §1

[3] = test system: α-isomaltosylglucosaccharide-forming enzyme from Bacillus globisporus C9 strain; assay: Specificity of saccharide transferring reaction acceptor, enzyme of Strain C9; details: 1.6% acceptor, 4% PINE-DEX #100 as donor, one unit/g donor, 30° C., pH 6.0, 24 hours; GLC or HPLC
Method: (§2) Using different saccharides, it was tested whether the saccharides were used as saccharide transferring reaction acceptors for the α-isomaltosylglucosaccharide-forming enzyme. A 1.6% solution, as a solution of saccharide transferring reaction acceptor, of D-glucose, D-xylose, L-xylose, D-galactose, D-fructose, D-mannose, D-arabinose, D-fucose, L-sorbose, L-rhamnose, methyl-α-glucopyranoside (methyl-α-glucose), methyl-β-glucopyranoside ([…]), N-acetyl-glucosamine, sorbitol, α,α-trehalose, isomaltose, isomaltotriose, cellobiose, gentibiose, maltitol, lactose, sucrose, α-cyclodextrin, β-cyclodextrin, or γ-cyclodextrin, was prepared. To each solution with a saccharide concentration was added “PINE-DEX #100”, a partial starch hydrolysate, as a saccharide donor, to give a concentration of 4%, and admixed with one unit/g saccharide donor, d.s.b., of either of purified specimens of α-isomaltosylglucosaccharide-forming enzyme from Bacillus globisporus C9 strain obtained by the method in Experiment 2-1, Bacillus globisporus C11 strain obtained by the method in Experiment 4-1. The resulting mixture solutions were incubated at 30° C. and pH 6.0 except that the enzyme from Arthrobacter globiformis A19 strain was incubated at pH 8.4 for 24 hours. The reaction mixtures of the post-enzymatic reactions were analyzed on gas chromatography (abbreviated as “GLC” hereinafter) for monosaccharides and disaccharides as acceptors, and on HPLC for trisaccharides as acceptors to confirm whether these saccharides could be used as their saccharide transferring reaction acceptors. In the case of performing GLC, the following apparatuses and conditions are used: GLC apparatus, “GC-16A” commercialized by Shimadzu Corporation, Tokyo, Japan; column, a stainless-steel column, 3 mm in diameter and 2 m in length, packed with 2% “SILICONE OV-17/CHROMOSOLV W”, commercialized by GL Sciences Inc., Tokyo, Japan; carrier gas, nitrogen gas at a flow rate of 40 ml/min under temperature conditions of increasing from 160° C. to 320° C. at an increasing temperature rate of 7.5° C./min; and detection, a hydrogen flame ionization detector.
(§3) In the case of HPLC analysis, the apparatuses and conditions used were: HPLC apparatus, “CCPD” commercialized by Tosoh Corporation, Tokyo, Japan; column, “ODS-AQ-303” commercialized by YMC Co., Ltd., Tokyo, Japan; eluent, water at a flow rate of 0.5 ml/min; and detection, a differential refractometer.

[4] = test system: α-isomaltosylglucosaccharide-forming enzyme from Bacillus globisporus C11 strain; assay: Specificity of saccharide transferring reaction acceptor, enzyme of Strain C11; details: 1.6% acceptor, 4% PINE-DEX #100 as donor, one unit/g donor, 30° C., pH 6.0, 24 hours; GLC or HPLC
Method: as §2, §3

Row | Molecule | Enzymatic action, Enzyme of Strain C9 [1] | Enzymatic action, Enzyme of Strain C11 [2] | Product of saccharide transferring reaction, Enzyme of Strain C9 [3] | Product of saccharide transferring reaction, Enzyme of Strain C11 [4]
1 | OC[C@@H](O)[C@@H](O[C@H]1O[C@H](CO)[C@@H](O)[C@H](O)[C@H]1O)[C@H](O)[C@@H](O)CO [Maltitol, maltitol] | − | − | ++ (a saccharide-transferred product was detected in an amount of at least ten percent through transferring reaction to acceptor) | ++ (a saccharide-transferred product was detected in an amount of at least ten percent through transferring reaction to acceptor)
2 | isomaltosyl glucoside [Isomaltosylglucoside] | − | − |  | 
3 | OC[C@@H](O)[C@@H](O[C@H]1O[C@H](CO)[C@@H](O[C@H]2O[C@H](CO)[C@@H](O)[C@H](O)[C@H]2O)[C@H](O)[C@H]1O)[C@H](O)[C@@H](O)CO [Maltotriitol, maltotriitol] | + | + |  | 
4 | OC[C@H]1O[C@H](O[C@H]2O[C@H](CO)[C@@H](O)[C@H](O)[C@H]2O[C@H]2O[C@H](CO)[C@@H](O)[C@H](O)[C@H]2O)[C@H](O)[C@@H](O)[C@@H]1O [Selaginose, selaginose] | − | − |  | 
5 | OC[C@H]1O[C@@H](O[C@H]2O[C@H](CO)[C@@H](O)[C@H](O)[C@H]2O)[C@H](O)[C@@H](O)[C@@H]1O [Neotrehalose, neotrehalose] | + | + |  | 
6 | maltohexaose | +++ | +++ |  | 
7 | maltopentaose | +++ | +++ |  | 
8 | OC[C@H]1O[C@H](OC[C@H]2O[C@H](OC[C@H]3OC(O)[C@H](O)[C@@H](O)[C@@H]3O)[C@H](O)[C@@H](O)[C@@H]2O)[C@H](O)[C@@H](O)[C@@H]1O (stereo partly drawn) [Isomaltotriose, isomaltotriose] | − | − | ++ (a saccharide-transferred product was detected in an amount of at least ten percent through transferring reaction to acceptor) | ++ (a saccharide-transferred product was detected in an amount of at least ten percent through transferring reaction to acceptor)
9 | OC[C@H]1O[C@H](O[C@H]2C(O)O[C@H](CO)[C@@H](O)[C@@H]2O)[C@H](O)[C@@H](O)[C@@H]1O (stereo partly drawn) [Kojibiose, kojibiose] | + | + |  | 
10 | OC[C@H]1O[C@@H](O[C@H]2[C@H](O)[C@@H](O)C(O)O[C@@H]2CO)[C@H](O)[C@@H](O)[C@H]1O (stereo partly drawn) [Lactose, lactose] | − | − | ++ (a saccharide-transferred product was detected in an amount of at least ten percent through transferring reaction to acceptor) | ++ (a saccharide-transferred product was detected in an amount of at least ten percent through transferring reaction to acceptor)
11 | OC[C@H]1O[C@@H](OC[C@H]2OC(O)[C@H](O)[C@@H](O)[C@@H]2O)[C@H](O)[C@@H](O)[C@@H]1O (stereo partly drawn) [Gentibiose, gentibiose] | − | − | ++ (a saccharide-transferred product was detected in an amount of at least ten percent through transferring reaction to acceptor) | ++ (a saccharide-transferred product was detected in an amount of at least ten percent through transferring reaction to acceptor)
12 | OC[C@H]1O[C@H](O[C@H]2[C@H](O)[C@@H](O)[C@@H](O[C@H]3[C@H](O)[C@@H](O)[C@@H](O[C@H]4[C@H](O)[C@@H](O)C(O)O[C@@H]4CO)O[C@@H]3CO)O[C@@H]2CO)[C@H](O)[C@@H](O)[C@@H]1O (stereo partly drawn) [Maltotetraose, maltotetraose] | +++ | +++ |  | 
13 | OC[C@H]1O[C@H](OC[C@H]2O[C@H](O[C@H]3[C@H](O)[C@@H](O)C(O)O[C@@H]3CO)[C@H](O)[C@@H](O)[C@@H]2O)[C@H](O)[C@@H](O)[C@@H]1O (stereo partly drawn) [Panose, panose] | − | − |  | 
14 | OC[C@H]1O[C@@](CO)(O[C@H]2O[C@H](CO)[C@@H](O[C@H]3O[C@H](CO)[C@@H](O)[C@H](O)[C@H]3O)[C@H](O)[C@H]2O)[C@@H](O)[C@@H]1O [Erlose, erlose] | + | + |  | 
15 | OC[C@H]1O[C@H](O[C@H]2[C@H](O)[C@@H](O)[C@H](O)O[C@@H]2CO)[C@H](O)[C@@H](O)[C@@H]1O [Maltose, maltose] | + | + |  | 
16 | OC[C@H]1O[C@H](O[C@H]2O[C@H](CO)[C@@H](O[C@H]3O[C@H](CO)[C@@H](O)[C@H](O)[C@H]3O)[C@H](O)[C@H]2O)[C@H](O)[C@@H](O)[C@@H]1O [Maltosylglucoside, maltosyl glucoside] | ++ | ++ |  | 
17 | maltotriose | ++ | ++ |  | 
18 | OC[C@H]1O[C@H](O[C@H]2[C@H](O)[C@@H](CO)OC(O)[C@@H]2O)[C@H](O)[C@@H](O)[C@@H]1O (stereo partly drawn) [Nigerose, nigerose] | + | + |  | 
19 | OC[C@H]1O[C@H](O[C@H]2[C@H](O)[C@@H](O)[C@@H](OC[C@H]3OC(O)[C@H](O)[C@@H](O)[C@@H]3O)O[C@@H]2CO)[C@H](O)[C@@H](O)[C@@H]1O (stereo partly drawn) [Isopanose, isopanose] | ++ | ++ |  | 
20 | maltoheptaose | +++ | +++ |  | 

Reference: patent US20080241904A1, “PROCESS FOR PRODUCING ISOMALTOSE AND USES THEREOF” (KABUSHIKI KAISHA HAYASHIBARA SEIBUTSU KAGAKU KENKYUJO, priority 2001, published 2008)
